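Dose response: 5 concentrations. Exposure: 48 h. Format: 96-well plates. Endpoint: linear interpolation; highest concentration if not reached. GI50: concentration for 50% inhibition of growth.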 Calls of active or inactive are those of the source. No stated cut-off is given here; in the data, active = GI50 up to about 1.1 µM and inactive = higher.
Assays:
Assay in all cases: growth of human tumour cells (NCI), 48 h
SNB-75 = system: SNB-75
NCI-H522 = system: NCI-H522
SK-OV-3 = system: SK-OV-3
HOP-92 = system: HOP-92
ACHN = system: ACHN
BT-549 = system: BT-549
Hs-578T = system: Hs-578T
M14 = system: M14
PC-3 = system: PC-3
SNB-19 = system: SNB-19
SW-620 = system: SW-620
U-251 = system: U-251
K562 = system: K562
LOX IMVI = system: LOX IMVI
MOLT-4 = system: MOLT-4
SF-268 = system: SF-268
MCF7 = system: MCF7
SK-MEL-5 = system: SK-MEL-5
786-0 = system: 786-0
A498 = system: A498

Row | Compound | GI50 (SNB-75) | GI50 (NCI-H522) | GI50 (SK-OV-3) | GI50 (HOP-92) | GI50 (ACHN) | GI50 (BT-549) | GI50 (Hs-578T) | GI50 (M14) | GI50 (PC-3) | GI50 (SNB-19) | GI50 (SW-620) | GI50 (U-251) | GI50 (K562) | GI50 (LOX IMVI) | GI50 (MOLT-4) | GI50 (SF-268) | GI50 (MCF7) | GI50 (SK-MEL-5) | GI50 (786-0) | GI50 (A498)
1 | COc1cc2nc(-c3c(F)cccc3F)n(Cc3c(F)cccc3F)c2cc1Cc1c(F)cccc1F | 2.74 µM (inactive) | 10 µM (inactive) | > 100 µM (inactive) | 2.79 µM (inactive) | > 42.6 µM (inactive) | > 71.8 µM (inactive) | > 20.5 µM (inactive) | > 24.3 µM (inactive) | > 100 µM (inactive) | > 100 µM (inactive) | > 100 µM (inactive) | > 100 µM (inactive) | > 28.6 µM (inactive) | > 100 µM (inactive) | 6.84 µM (inactive) | > 72.1 µM (inactive) | 3.47 µM (inactive) | 6.28 µM (inactive) | > 100 µM (inactive) | 3.62 µM (inactive)
2 | O=c1cc(N2CCOCC2)n2c(ccc3ccccc32)n1 | > 100 µM (inactive) | > 100 µM (inactive) | > 100 µM (inactive) | > 100 µM (inactive) | > 100 µM (inactive) | > 100 µM (inactive) | > 100 µM (inactive) | > 100 µM (inactive) | > 100 µM (inactive) | > 100 µM (inactive) | > 100 µM (inactive) | > 100 µM (inactive) | > 100 µM (inactive) | > 100 µM (inactive) | > 100 µM (inactive) | > 100 µM (inactive) | > 100 µM (inactive) | > 100 µM (inactive) | > 100 µM (inactive) | > 100 µM (inactive)
3 | NC(=S)N/N=C/c1c[nH]c2ccccc12 | 41.9 µM (inactive) | 52.5 µM (inactive) | > 100 µM (inactive) | 21.6 µM (inactive) | > 100 µM (inactive) | > 100 µM (inactive) | > 100 µM (inactive) | > 100 µM (inactive) | > 100 µM (inactive) | > 100 µM (inactive) | > 100 µM (inactive) | > 100 µM (inactive) | > 100 µM (inactive) | > 100 µM (inactive) | 12.3 µM (inactive) | > 100 µM (inactive) | > 100 µM (inactive) | > 100 µM (inactive) | > 100 µM (inactive) | > 100 µM (inactive)
4 | COc1ccc2[nH]cc(C=C3C(=O)NC(=S)NC3=O)c2c1 | 23.1 µM (inactive) | > 100 µM (inactive) | 52.2 µM (inactive) | 73.6 µM (inactive) | > 100 µM (inactive) | 53 µM (inactive) | 45.8 µM (inactive) | > 100 µM (inactive) | > 100 µM (inactive) | 62.1 µM (inactive) | > 100 µM (inactive) | 24.2 µM (inactive) | > 100 µM (inactive) | > 100 µM (inactive) | 62.4 µM (inactive) | 19.8 µM (inactive) | > 100 µM (inactive) | > 100 µM (inactive) | 31.6 µM (inactive) | > 100 µM (inactive)
5 | CC(=O)Oc1cccc2c(/C=N/NC(N)=S)ncc(C)c12 | 4.03 µM (inactive) | 0.705 µM (active) | 1.46 µM (inactive) | 3.27 µM (inactive) | 0.445 µM (active) | 1.28 µM (inactive) | 20.6 µM (inactive) | 0.753 µM (active) | 1.9 µM (inactive) | 1.2 µM (inactive) | 4.59 µM (inactive) | 1.01 µM (active) | 1.31 µM (inactive) | 0.596 µM (active) | 0.385 µM (active) | 0.357 µM (active) | 0.603 µM (active) | 1.38 µM (inactive) | 0.322 µM (active) | 7.55 µM (inactive)
